Structures can show the parent of a compound that is named as a salt.
Biological target: T1, A1 receptor (Homo sapiens, UniProt P30542)
T1 sequence (P30542 1-326): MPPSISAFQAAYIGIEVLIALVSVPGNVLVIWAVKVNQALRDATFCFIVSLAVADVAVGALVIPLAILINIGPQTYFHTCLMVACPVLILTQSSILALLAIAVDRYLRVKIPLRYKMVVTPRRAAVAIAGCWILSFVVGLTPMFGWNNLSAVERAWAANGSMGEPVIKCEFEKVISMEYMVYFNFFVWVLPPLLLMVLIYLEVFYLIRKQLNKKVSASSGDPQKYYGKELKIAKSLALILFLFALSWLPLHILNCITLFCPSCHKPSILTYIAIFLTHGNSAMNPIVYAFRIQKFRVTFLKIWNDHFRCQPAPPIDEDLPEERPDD
Test: Adenosine A1 receptor affinity (Ki potency)
Format: binding
From the text: As used herein, the term “A1 agonist” refers to an A1 agonist that has an affinity to the A1 receptor while simultaneously having a lower affinity for the A2 and A3 adenosine receptors.

Row | Structure (SMILES) | Ki
1 | O=S(=O)(O)OC[C@H]1O[C@@H](n2cnc3c(NC4CCCC4)ncnc32)[C@H](O)[C@@H]1O [Compound C, sodium((2R,3S,4R,5R)-5-(6-(cyclopentylamino)-9H-purin-9-yl)-3,4-dihydroxytetrahydrofuran-2-yl)methyl sulfate] | 4.05 nM
2 | O=[N+]([O-])OC[C@H]1O[C@@H](n2cnc3c(NC4CCOC4)ncnc32)[C@H](O)[C@@H]1O (stereo partly drawn) [Compound D, ((2R,3S,4R,5R)-3,4-dihydroxy-5-(6-(tetrahydrofuran-3-ylamino)-9H-purin-9-yl)tetrahydrofuran-2-yl)methyl nitrate] | 10.6 nM
3 | O=[N+]([O-])OC[C@H]1O[C@@H](n2cnc3c(NC4CCCCC4)ncnc32)[C@H](O)[C@@H]1O [Compound E, ((2R,3S,4R,5R)-5-(6-(cyclohexylamino)-9H-purin-9-yl)-3,4-dihydroxytetrahydrofuran-2-yl)methyl nitrate] | 1.32 nM
4 | O=[N+]([O-])OC[C@H]1O[C@@H](n2cnc3c(NC4CC5CCC4C5)ncnc32)[C@H](O)[C@@H]1O (stereo partly drawn) [Compound F, ((2R,3S,4R,5R)-5-(6-(bicycle-[2.2.1]-heptan-2-ylamino)-9H-purin-9-yl)-3,4-dihydroxytetrahydrofuran-2-yl)methyl nitrate] | 1.47 nM
5 | O=S(=O)(O)OC[C@H]1O[C@@H](n2cnc3c(NC4CCCCC4)nc(Cl)nc32)[C@H](O)[C@@H]1O [Compound G, sodium((2R,3S,4R,5R)-5-(2-chloro-6-(cyclohexylamino)-9H-purin-9-yl)-3,4-dihydroxytetrahydrofuran-2-yl)methyl sulfate] | 1.36 nM

Reference: US8440639B2, “Combination compositions for reducing intraocular pressure” (Inotek Pharmaceuticals Corporation, priority 2010, dated 2013)
